ChEMBL document CHEMBL4888484, “Replenishing the malaria drug discovery pipeline: Screening and hit evaluation of the MMV Hit Generation Library 1 (HGL1) against asexual blood stage Plasmodium falciparum ,using a nano luciferase reporter read-out” (2022)

Experiments:
[1] = tested on: Plasmodium falciparum; assay: Hit confirmation in dose-response curve in NF54 nanoGlo assay, at 72h; format: functional, organism-based, Erythrocyte; design: timepoint 72 hour; settings: Plasmodium falciparum, NF54, Erythrocyte, 72 h
[2] = tested on: Plasmodium falciparum; assay: Hit confirmation in dose-response curve in NF54 pLDH assay, at 72h; format: functional, organism-based; design: timepoint 72 hour; settings: NF54, Erythrocyte
[3] = tested on: Plasmodium falciparum; assay: Hit confirmation in dose-response curve in Dd2 pLDH assay, at 72h; format: functional, organism-based; design: timepoint 72 hour; settings: Dd2, Erythrocyte
[4] = tested on: Plasmodium falciparum; assay: Hit confirmation in dose-response curve in NF54 nanoGlo assay, at 12h; format: functional, organism-based, Erythrocyte; design: timepoint 12 hour; settings: Plasmodium falciparum, NF54, Erythrocyte, 12 h
[5] = Hit confirmation in dose-response curve in HepG2 cytotoxicity assay, at 72h; format: toxicity, cell-based; design: timepoint 72 hour; settings: human, HepG2 cells

| SMILES | IC50 [1] | IC50 [2] | IC50 [3] | IC50 [4] | IC50 at 72 h [5] |
| --- | --- | --- | --- | --- | --- |
| c1ccc(CCNc2nc(-c3ccccn3)cs2)cc1 | 2.45 µM | 3.24 µM | 3.63 µM | > 10 µM | > 10 µM |
| O=C(N[C@@H]1CN(Cc2ccccn2)CCC[C@H]1O)c1ccc(OCc2ccccc2)cc1 | 2.45 µM | 4.07 µM | 2.29 µM | > 10 µM | > 10 µM |
| C[C@H]1[C@@H]2[C@@H](O)C([C@H](C)C(=O)NC3CCCCC3)CC[C@@]2(C)CC[C@@H]1NC(=O)CC(C)(C)C (stereo not given in full) | > 10 µM | 3.47 µM | 2.88 µM | > 10 µM | > 10 µM |
| CC(C)C(=O)Nc1ccc(-c2cc(-c3ccc(NC(=O)C(C)C)cc3)nc(-c3ccncc3)n2)cc1 | 4.68 µM | 8.71 µM | > 10 µM | > 10 µM | > 10 µM |
| O=C(c1cccc(C(=O)N2CCN(C(c3ccccc3)c3ccccc3)CC2)c1)N1CCN(C(c2ccccc2)c2ccccc2)CC1 | > 10 µM | > 10 µM | > 10 µM | > 10 µM | > 10 µM |
| COc1ccc(C2=CN(CC(=O)c3ccc(Cl)cc3)C3=CCCCCN23)cc1 | 2.95 µM | 2.95 µM | 3.16 µM | > 10 µM | > 10 µM |
| CCN(CC)CCn1c2ccccc2n2cc(-c3ccc(Br)cc3)nc12 | 4.47 µM | 9.77 µM | 6.46 µM | 7.08 µM | > 10 µM |
| Cc1ccc(S(=O)(=O)Nc2c(S(=O)(=O)c3ccc(C)cc3)c3nc4ccccc4nc3n2C[C@H]2CCCO2)cc1 | 2.57 µM | > 10 µM | > 10 µM | 1.35 µM | > 10 µM |
| CCCCCn1c(NCc2cc(Cl)ccc2O)nc2ccccc21 | 3.63 µM | 8.71 µM | 7.41 µM | 6.76 µM | > 10 µM |
| COc1ccc(CC(=N)Nc2cc3cc(OC)c(OC)cc3c(Cc3ccc(OC)c(OC)c3)n2)cc1OC | 2.24 µM | 3.72 µM | 2 µM | 5.01 µM | > 10 µM |
| CCCOc1ccc(Nc2cc(C)nc3ccc(Cl)cc23)cc1 | 2.88 µM | 7.08 µM | 3.24 µM | > 10 µM | > 10 µM |
| N#Cc1c(-c2ccccc2)cc(-c2ccccc2)nc1S(=O)(=O)Cc1ccccc1 | 3.09 µM | 4.07 µM | 3.55 µM | 6.61 µM | > 10 µM |
| CCC(CC)c1cc([C@H]2CN3CC[C@H]2C[C@@H]3CNS(=O)(=O)Cc2ccccc2)nc(-c2ccncc2)n1 | 2.04 µM | 4.37 µM | 3.89 µM | 3.89 µM | > 10 µM |
| Cc1ccc[n+](Cc2ccc3ccccc3n2)c1 | 3.02 µM | 3.24 µM | 2.88 µM | > 10 µM | > 10 µM |
| Cc1ccc(S(=O)(=O)Nc2c(S(=O)(=O)c3ccc(C)cc3)c3nc4ccccc4nc3n2CCC(C)C)cc1 | 2.51 µM | 8.32 µM | 4.27 µM | 4.79 µM | > 10 µM |
| CCC[N+]1(CC#C[C@@](O)(c2ccccc2)C2(C)CCCC2)CCCCC1 | 3.24 µM | 3.47 µM | 3.24 µM | > 3.16 µM | > 10 µM |
| CN(C(=O)C(C)(C)Nc1ncc(C(F)(F)F)cc1Cl)c1ccc(Cl)cc1 | 3.55 µM | > 10 µM | > 10 µM | 1.55 µM | > 10 µM |
| O=C(NC1=NN2C(=NC(c3ccc(Cl)cc3)=C[C@H]2c2ccc(F)cc2)N1)c1ccc(Cl)cc1 | 2.29 µM | 2.95 µM | 3.16 µM | 4.17 µM | > 10 µM |
| COCCCn1c(NS(=O)(=O)c2ccc3ccccc3c2)c(S(=O)(=O)c2ccc(C)cc2)c2nc3ccccc3nc21 | 2.34 µM | 6.76 µM | 8.51 µM | 1.55 µM | > 10 µM |
| CCC[N+]1(CC#C[C@@](O)(c2ccccc2)C(C)(CC)CC)CCCCC1 | 3.39 µM | 4.37 µM | 4.27 µM | > 10 µM | > 10 µM |
| COc1ccc(CNC(=O)c2ccc(N3C(=O)[C@@H]4Cc5c([nH]c6ccccc56)C(c5cccc(OC)c5)N4C3=O)cc2)cc1 (stereo not given in full) | 3.16 µM | > 10 µM | 8.91 µM | 6.92 µM | > 10 µM |

Now from value to compound, other results behind:

| IC50 [1] | IC50 [2] | IC50 [3] | IC50 [4] | SMILES | IC50 at 72 h [5] |
| --- | --- | --- | --- | --- | --- |
| 1.55 µM | 3.47 µM | 1.86 µM | 5.75 µM | CCOc1ccc(Nc2c3ccccc3nc3ccccc23)cc1 | > 10 µM |
| 0.0269 µM | 0.0708 µM | > 10 µM | > 10 µM | CCOC(=O)CCn1cc(F)c(=O)[nH]c1=O | > 10 µM |
| 0.891 µM | 1.66 µM | 1.2 µM | > 10 µM | Cc1ccc(-c2c[n+](-c3ccc(OC(F)F)cc3)c3n2CCCCC3)cc1 | > 10 µM |
| 0.263 µM | 0.513 µM | 0.372 µM | > 10 µM | CCc1ccc(/C=C/c2c[nH]c3ccccc23)[n+](CC)c1 | > 10 µM |
| 1.23 µM | 1.66 µM | 1.26 µM | 7.41 µM | Cc1cc(C)c2nc(C)cc(Nc3ccc(O)cc3)c2c1 | > 10 µM |
| 0.631 µM | 1.32 µM | 0.955 µM | 2.19 µM | c1ccc(C2=NN(c3ccc(-c4cc(-c5ccccc5)[n+](-c5ccccc5)c(-c5ccccc5)c4)cc3)[C@H](c3ccccc3)C2)cc1 | 4.07 µM |
| 1.17 µM | 1.58 µM | 1.26 µM | > 10 µM | COc1ccc2c(/C=C/c3cc[n+](C)cc3)cn(Cc3ccccc3)c2c1 | > 10 µM |
| 1.91 µM | 5.89 µM | 2.82 µM | 3.09 µM | CC(=O)c1cccc(NC(=O)[C@@]23CCC(=O)N2c2ccccc2C(=O)N3C)c1 | > 10 µM |
| 1.05 µM | 1.55 µM | 1.62 µM | > 10 µM | Cc1n(CC(=O)c2ccccc2)c2ccccc2[n+]1CC(=O)c1ccccc1 | > 10 µM |
| 0.513 µM | 1.15 µM | 1.95 µM | 0.977 µM | c1cc(-c2nc3cc4ccccc4cc3[nH]2)nc(-c2nc3cc4ccccc4cc3[nH]2)c1 | 8.32 µM |
| 0.759 µM | 2.95 µM | 2.29 µM | 8.51 µM | C[C@H]1CCC[C@@H](NCCc2ccccc2)CCC/C=C/c2cc(O)cc(O)c2C(=O)O1 | > 10 µM |
| 2.14 µM | 6.76 µM | 5.13 µM | 3.63 µM | Cc1ccc(S(=O)(=O)Nc2c(S(=O)(=O)c3ccccc3)c3nc4ccccc4nc3n2CCc2ccccc2)cc1 | > 10 µM |
| 2.19 µM | 1.41 µM | 1.26 µM | > 10 µM | CC1([C@@](O)(C#CC[N+]2(C)CCCCC2)c2ccccc2)CCCC1 | > 10 µM |
| 0.562 µM | 0.891 µM | 0.417 µM | 5.37 µM | CC[n+]1c(/C=C/N(C)c2ccccc2)oc2ccc(-c3ccccc3)cc21 | > 10 µM |
| 0.724 µM | 2.29 µM | 0.891 µM | > 10 µM | CCOC(=O)c1cn(CC)c2cc(NC3CCCCC3)c(F)cc2c1=O | > 10 µM |
| 1.29 µM | 3.02 µM | 1.41 µM | > 10 µM | c1ccc(CC2=NCCc3ccccc32)cc1 | > 10 µM |
| 1.51 µM | > 10 µM | > 10 µM | 0.525 µM | Cc1ccc(N2C(=O)C[C@]3(CC3(c3ccccc3)c3ccccc3)C2=O)cc1 | > 10 µM |
| 1.82 µM | 3.16 µM | 3.39 µM | > 10 µM | C=C1C(C)C2C(Cc3c[nH]c4ccccc34)NC(=O)C23C(=O)CC(O)C(O)CC(C)C/C=C/C3C1O (stereo not given) | > 10 µM |
| 1.48 µM | > 10 µM | > 10 µM | 0.575 µM | COc1cccc(-c2nc(C)c(C(=O)Nc3nc(C(C)C)n[nH]3)s2)c1 | > 10 µM |
| 1 µM | 1.35 µM | 1.23 µM | 1.7 µM | CCN1C(=O)c2ccccc2N2C(=O)CC[C@@]12C(=O)Nc1cccc(OC)c1 | > 10 µM |
| 2.19 µM | 4.07 µM | 3.09 µM | 3.89 µM | Oc1cc(OCc2ccccc2F)ccc1-c1[nH]ncc1-c1ccccc1 | > 10 µM |
| 1.66 µM | 3.31 µM | 1.91 µM | > 10 µM | COc1c2c(cc3c1[C@@H](C#CCOc1ccccc1)[N+](C)(C)CC3)OCO2 | > 10 µM |
| 1.95 µM | 4.37 µM | 3.55 µM | 4.47 µM | CC(C)Nc1nc2nonc2n2cnnc12 | > 10 µM |
| 1.7 µM | 4.37 µM | 4.07 µM | 2.75 µM | Cc1ccc(S(=O)(=O)c2c(NS(=O)(=O)c3ccc(F)cc3)n(CCc3ccccc3)c3nc4ccccc4nc23)cc1 | > 10 µM |
| 1.45 µM | 3.8 µM | 3.02 µM | 1.91 µM | Cc1ccc(S(=O)(=O)c2c(NS(=O)(=O)c3ccccc3)n(CCc3ccccc3)c3nc4ccccc4nc23)cc1 | > 10 µM |
| 0.49 µM | 0.263 µM | 1.41 µM | > 10 µM | CC(=O)Nc1ccc(-c2cn3c4ccccc4ccc3[n+]2C)cc1 | > 10 µM |
| 1.74 µM | 2.45 µM | 2.82 µM | > 10 µM | O=C(COc1ccccc1)Nc1ccc2c(c1)C(O)=Nc1cccnc1O2 | > 10 µM |
